Assay results reported in patent US12583826B2, “[(1,5-diphenyl-1H-1,2,4-triazol-3-yl)oxy]acetic acid derivatives and salts thereof, crop protection compositions comprising them, methods for producing them and use thereof as safeners” (Bayer Aktiengesellschaft, priority 2019, dated 2026).

Experiments:
[1] = system: summer wheat (TRZAS; cv. Triso); experiment: Absolute action: reduction of damage by mesosulfuron-methyl on summer wheat, greenhouse post-emergence; format: in vivo; conditions: for Absolute reduction in herbicide damage (damage without safener minus damage with safener): mesosulfuron-methyl 20 g/ha; for Herbicide damage with compound of the formula (I): then mesosulfuron-methyl 20 g/ha, visual 0-100% scale, 14-21 days after application
Method: (§1) 2.1 Absolute Action of Selected Compounds of the Invention Using the Example of Reduction of Damage by Mesosulfuron-Methyl on Summer Wheat (TRZAS) The seeds of the crop plants to be treated are laid out in sandy loam in wood fiber or plastic pots (diameter ˜4 cm), covered with soil and grow in a greenhouse under good conditions for germination and growth. The trial plants were treated at the early leaf stage (BBCH10—BBCH12). In the course of this, the inventive compounds of the general formula (I) formulated in the form of wettable powders (WP) were sprayed onto the above-ground parts of the plants as an aqueous suspension with a water application rate corresponding to 800 l/ha with addition of wetting agent (e.g. 0.2% agrotin) in the specified dose. This was followed by the application of the herbicide. For this purpose, mesosulfuron-methyl, formulated in the form of water-dispersible granules (WG), was sprayed onto the above-ground parts of the plants in the form of an aqueous dispersion with a water application rate corresponding to 800 l/ha with addition of wetting agent (e.g. 0.2% agrotin) in a dose of 20 g/ha. The dose of the herbicide was chosen here such that it causes visually apparent damage (min. 30%, max. 75%) compared to untreated crop plants at the evaluation time on a control group of crop plants without safener treatment that were included in the same trial. After application, the plants were cultivated under good growth conditions in a greenhouse. The damage was visually assessed 14-21 days after application. The damage effect was assessed visually on a scale of 0-100% by comparison with untreated control plants, and averaged over 2-3 repeats per treatment. Examples: • 0%=no noticeable effect compared to the untreated plant • 20%=the treated plant population has 20% damage compared to the untreated control population (e.g. growth height, leaf damage, etc.) • 100%=treated plants completely damaged/killed.

[2] = system: summer barley (HORVS; cv. Montoya); experiment: Absolute action: reduction of damage by mesosulfuron-methyl on summer barley, greenhouse post-emergence; format: in vivo; conditions: for Absolute reduction in damage (difference): mesosulfuron-methyl 20 g/ha, damage without minus with safener; for Herbicide damage with compound of the formula (I) (%): then mesosulfuron-methyl 20 g/ha, visual 0-100% scale, 14-21 days after application
Method: as §1, with “2.2 Absolute Action” for “2.1 Absolute Action”, “on Summer Barley (HORVS) The seeds” for “on Summer Wheat (TRZAS) The seeds”, “treated are aid out in” for “treated are laid out in”, “soil and grown in a” for “soil and grow in a”, “leaf stage (BBCE10-BBCH12). In the” for “leaf stage (BBCH10—BBCH12). In the”, “control population (e.g.: growth height,” for “control population (e.g. growth height,”

CCOC(=O)COc1nc(-c2ccccc2)n(-c2ccc(F)cc2)n1 [I.2-4]
Absolute reduction in herbicide damage (damage without safener minus damage with safener) ([1]; safener 1000 g/ha): 20%
Herbicide damage with compound of the formula (I) ([1]; safener 1000 g/ha): 30%

CCOC(=O)COc1nc(-c2ccccc2)n(-c2ccc(F)cc2F)n1 [I.2-38]
Absolute reduction in herbicide damage (damage without safener minus damage with safener) ([1]; safener 1000 g/ha): 20%
Herbicide damage with compound of the formula (I) ([1]; safener 1000 g/ha): 30%

O=C(O)COc1nc(-c2ccccc2)n(-c2ccc(F)cc2)n1 [I.3-4]
Absolute reduction in herbicide damage (damage without safener minus damage with safener) ([1]; safener 250 g/ha): 20%
Herbicide damage with compound of the formula (I) ([1]; safener 250 g/ha): 30%
Absolute reduction in herbicide damage (damage without safener minus damage with safener) ([1]; safener 1000 g/ha): 27%
Herbicide damage with compound of the formula (I) ([1]; safener 1000 g/ha): 23%

O=C(O)COc1nc(-c2ccccc2)n(-c2ccc(Cl)cc2)n1 [I.3-7]
Absolute reduction in herbicide damage (damage without safener minus damage with safener) ([1]; safener 250 g/ha): 23%
Herbicide damage with compound of the formula (I) ([1]; safener 250 g/ha): 20%
Absolute reduction in herbicide damage (damage without safener minus damage with safener) ([1]; safener 1000 g/ha): 33%
Herbicide damage with compound of the formula (I) ([1]; safener 1000 g/ha): 10%
Absolute reduction in damage (difference) ([2]; safener 250 g a.i./ha): 20%
Herbicide damage with compound of the formula (I) (%) ([2]; safener 250 g a.i./ha): 40%

COC(=O)COc1nc(-c2ccccc2F)n(-c2ccc(Cl)cc2Cl)n1 [I.4-32]
Absolute reduction in herbicide damage (damage without safener minus damage with safener) ([1]; safener 125 g a.i./ha): 34%
Herbicide damage with compound of the formula (I) ([1]; safener 125 g a.i./ha): 23%
Absolute reduction in herbicide damage (damage without safener minus damage with safener) ([1]; safener 500 g a.i./ha): 47%
Herbicide damage with compound of the formula (I) ([1]; safener 500 g a.i./ha): 10%
Absolute reduction in damage (difference) ([2]; safener 125 g a.i./ha): 20%
Herbicide damage with compound of the formula (I) (%) ([2]; safener 125 g a.i./ha): 37%
Absolute reduction in damage (difference) ([2]; safener 500 g a.i./ha): 44%
Herbicide damage with compound of the formula (I) (%) ([2]; safener 500 g a.i./ha): 13%

COC(=O)COc1nc(-c2ccccc2F)n(-c2ccc(F)cc2F)n1 [I.4-38]
Absolute reduction in herbicide damage (damage without safener minus damage with safener) ([1]; safener 125 g a.i./ha): 27%
Herbicide damage with compound of the formula (I) ([1]; safener 125 g a.i./ha): 30%
Absolute reduction in damage (difference) ([2]; safener 500 g a.i./ha): 50%
Herbicide damage with compound of the formula (I) (%) ([2]; safener 500 g a.i./ha): 7%

COC(=O)COc1nc(-c2ccccc2F)n(-c2ccc(Cl)cc2F)n1 [I.4-49]
Absolute reduction in herbicide damage (damage without safener minus damage with safener) ([1]; safener 125 g a.i./ha): 40%
Herbicide damage with compound of the formula (I) ([1]; safener 125 g a.i./ha): 17%
Absolute reduction in damage (difference) ([2]; safener 125 g a.i./ha): 44%
Herbicide damage with compound of the formula (I) (%) ([2]; safener 125 g a.i./ha): 13%
Absolute reduction in damage (difference) ([2]; safener 500 g a.i./ha): 47%
Herbicide damage with compound of the formula (I) (%) ([2]; safener 500 g a.i./ha): 10%

CCOC(=O)COc1nc(-c2ccccc2F)n(-c2ccc(Cl)cc2Cl)n1 [I.5-32]
Absolute reduction in herbicide damage (damage without safener minus damage with safener) ([1]; safener 1000 g/ha): 27%
Herbicide damage with compound of the formula (I) ([1]; safener 1000 g/ha): 30%

CCOC(=O)COc1nc(-c2ccccc2F)n(-c2ccc(Cl)cc2F)n1 [I.5-49]
Absolute reduction in herbicide damage (damage without safener minus damage with safener) ([1]; safener 125 g a.i./ha): 54%
Herbicide damage with compound of the formula (I) ([1]; safener 125 g a.i./ha): 13%
Absolute reduction in damage (difference) ([2]; safener 125 g a.i./ha): 50%
Herbicide damage with compound of the formula (I) (%) ([2]; safener 125 g a.i./ha): 23%
Absolute reduction in damage (difference) ([2]; safener 500 g a.i./ha): 56%
Herbicide damage with compound of the formula (I) (%) ([2]; safener 500 g a.i./ha): 17%

O=C(O)COc1nc(-c2ccccc2F)n(-c2ccc(Cl)cc2Cl)n1 [I.6-32]
Absolute reduction in damage (difference) ([2]; safener 250 g a.i./ha): 20%
Herbicide damage with compound of the formula (I) (%) ([2]; safener 250 g a.i./ha): 40%

O=C(O)COc1nc(-c2ccccc2F)n(-c2ccc(F)cc2F)n1 [I.6-38]
Absolute reduction in herbicide damage (damage without safener minus damage with safener) ([1]; safener 125 g a.i./ha): 50%
Herbicide damage with compound of the formula (I) ([1]; safener 125 g a.i./ha): 17%
Absolute reduction in damage (difference) ([2]; safener 125 g a.i./ha): 53%
Herbicide damage with compound of the formula (I) (%) ([2]; safener 125 g a.i./ha): 20%

O=C(O)COc1nc(-c2ccccc2F)n(-c2ccc(Cl)cc2F)n1 [I.6-49]
Absolute reduction in herbicide damage (damage without safener minus damage with safener) ([1]; safener 250 g/ha): 30%
Herbicide damage with compound of the formula (I) ([1]; safener 250 g/ha): 27%
Absolute reduction in damage (difference) ([2]; safener 250 g a.i./ha): 20%
Herbicide damage with compound of the formula (I) (%) ([2]; safener 250 g a.i./ha): 40%
Absolute reduction in damage (difference) ([2]; safener 1000 g a.i./ha): 30%
Herbicide damage with compound of the formula (I) (%) ([2]; safener 1000 g a.i./ha): 30%

CCOC(=O)COc1nc(-c2ccc(F)cc2)n(-c2ccc(F)cc2F)n1 [I.11-38]
Absolute reduction in herbicide damage (damage without safener minus damage with safener) ([1]; safener dose not given): 20%
Herbicide damage with compound of the formula (I) ([1]; safener dose not given): 30%

O=C(O)COc1nc(-c2ccc(F)cc2)n(-c2ccc(Cl)cc2)n1 [I.12-7]
Absolute reduction in herbicide damage (damage without safener minus damage with safener) ([1]; safener 250 g/ha): 23%
Herbicide damage with compound of the formula (I) ([1]; safener 250 g/ha): 20%
Absolute reduction in damage (difference) ([2]; safener 1000 g a.i./ha): 20%
Herbicide damage with compound of the formula (I) (%) ([2]; safener 1000 g a.i./ha): 40%

CCOC(=O)COc1nc(-c2ccc(Cl)cc2)n(-c2ccccc2)n1 [I.20-1]
Absolute reduction in herbicide damage (damage without safener minus damage with safener) ([1]; safener 250 g/ha): 30%
Herbicide damage with compound of the formula (I) ([1]; safener 250 g/ha): 13%
Absolute reduction in herbicide damage (damage without safener minus damage with safener) ([1]; safener 1000 g/ha): 36%
Herbicide damage with compound of the formula (I) ([1]; safener 1000 g/ha): 7%

O=C(O)COc1nc(-c2ccc(Cl)cc2)n(-c2ccc(F)cc2F)n1 [I.21-38]
Absolute reduction in herbicide damage (damage without safener minus damage with safener) ([1]; safener 1000 g/ha): 23%
Herbicide damage with compound of the formula (I) ([1]; safener 1000 g/ha): 20%
Absolute reduction in damage (difference) ([2]; safener 250 g a.i./ha): 30%
Herbicide damage with compound of the formula (I) (%) ([2]; safener 250 g a.i./ha): 30%
Absolute reduction in damage (difference) ([2]; safener 1000 g a.i./ha): 40%
Herbicide damage with compound of the formula (I) (%) ([2]; safener 1000 g a.i./ha): 20%

COc1ccccc1-c1nc(OCC(=O)O)nn1-c1ccccc1F [I.24-2]
Absolute reduction in herbicide damage (damage without safener minus damage with safener) ([1]; safener 500 g a.i./ha): 20%
Herbicide damage with compound of the formula (I) ([1]; safener 500 g a.i./ha): 30%

CCOC(=O)COc1nc(-c2ccc(F)cc2F)n(-c2ccc(Cl)cc2)n1 [I.41-7]
Absolute reduction in herbicide damage (damage without safener minus damage with safener) ([1]; safener 250 g/ha): 23%
Herbicide damage with compound of the formula (I) ([1]; safener 250 g/ha): 20%
Absolute reduction in damage (difference) ([2]; safener 1000 g a.i./ha): 40%
Herbicide damage with compound of the formula (I) (%) ([2]; safener 1000 g a.i./ha): 20%

CCOC(=O)COc1nc(-c2ccc(F)cc2F)n(-c2ccc(F)cc2F)n1 [I.41-38]
Absolute reduction in damage (difference) ([2]; safener 250 g a.i./ha): 23%
Herbicide damage with compound of the formula (I) (%) ([2]; safener 250 g a.i./ha): 30%
Absolute reduction in damage (difference) ([2]; safener 1000 g a.i./ha): 23%
Herbicide damage with compound of the formula (I) (%) ([2]; safener 1000 g a.i./ha): 30%

O=C(O)COc1nc(-c2ccc(F)cc2F)n(-c2ccc(Cl)cc2)n1 [I.42-7, {[1-(4-Chlorophenyl)-5-(2,4-difluorophenyl)-1H-1,2,4-triazol-3-yl]oxy}acetic acid]
Absolute reduction in herbicide damage (damage without safener minus damage with safener) ([1]; safener 250 g/ha): 43%
Herbicide damage with compound of the formula (I) ([1]; safener 250 g/ha): 0%
Absolute reduction in damage (difference) ([2]; safener 250 g a.i./ha): 60%
Herbicide damage with compound of the formula (I) (%) ([2]; safener 250 g a.i./ha): 0%

COC(=O)COc1nc(-c2ccc(Cl)cc2Cl)n(-c2ccc(Cl)cc2Cl)n1 [I.43-32]
Absolute reduction in herbicide damage (damage without safener minus damage with safener) ([1]; safener 125 g a.i./ha): 33%
Herbicide damage with compound of the formula (I) ([1]; safener 125 g a.i./ha): 30%
Absolute reduction in herbicide damage (damage without safener minus damage with safener) ([1]; safener 500 g a.i./ha): 43%
Herbicide damage with compound of the formula (I) ([1]; safener 500 g a.i./ha): 20%
Absolute reduction in damage (difference) ([2]; safener 125 g a.i./ha): 26%
Herbicide damage with compound of the formula (I) (%) ([2]; safener 125 g a.i./ha): 37%
Absolute reduction in damage (difference) ([2]; safener 500 g a.i./ha): 33%
Herbicide damage with compound of the formula (I) (%) ([2]; safener 500 g a.i./ha): 30%

O=C(O)COc1nc(-c2ccc(Cl)cc2Cl)n(-c2ccccc2F)n1 [I.45-2]
Absolute reduction in herbicide damage (damage without safener minus damage with safener) ([1]; safener 500 g a.i./ha): 20%
Herbicide damage with compound of the formula (I) ([1]; safener 500 g a.i./ha): 30%

O=C(O)COc1nc(-c2ccc(Cl)cc2Cl)n(-c2ccc(Cl)cc2Cl)n1 [I.45-32]
Absolute reduction in herbicide damage (damage without safener minus damage with safener) ([1]; safener 125 g a.i./ha): 23%
Herbicide damage with compound of the formula (I) ([1]; safener 125 g a.i./ha): 40%
Absolute reduction in herbicide damage (damage without safener minus damage with safener) ([1]; safener 500 g a.i./ha): 30%
Herbicide damage with compound of the formula (I) ([1]; safener 500 g a.i./ha): 33%
